For series [1] the following is noted: human, plasma, 5 h.
The conditions of series [2]: rat, plasma, 5 h.
Series [3] in a line: physchem. To be noted: octan-1-ol/water, pH 7.4, LogD7.4.
Series [4] is described as follows: in vitro. To be noted: mouse, plasma.
Series [5] is described as follows: in vitro. The following applies: human, plasma, PPB.
Series [6] in a line: in vitro. To be noted: SD, HW or BN, rat, plasma.
The nature of series [7]: physchem. The following applies: pH 7.4 buffer.
Series [8] can be described thus: in vitro. To be noted: Beagle, dog, plasma.
Series [9] can be described thus: in vitro. To be noted: Dunkin Hartley, guinea pig, plasma.
A short description of series [10]: ASTRAZENECA: Third most basic pKa value (pKa B3) determined by absorption and potentiometric titration using standard methodology from Sirius Analytical. Experimental range Bases: >= 2. The following applies: read-out: pKa_B3. The class given is physicochemical.
The nature of series [11]: physchem.
The nature of series [12]: physchem. This is another data set of the same source.
Series [13] is described as follows: in vitro. The following applies: hepatocytes.
The nature of series [14]: in vitro. To be noted: human.
The conditions of series [15]: CD1, BC, CD1, NMRI, SCID, or Nd, rat, hepatocytes.
Series [16] is described as follows: physchem. This is another data set of the same source.
The nature of series [17]: physchem. The source holds these as a separate data set.
A short description of series [18]: in vitro. To be noted: human, hepatocytes.
For series [19] the following is noted: dog, plasma, 5 h.

SMILES strings stand for the structures. ≈ marks a conversion by molar mass, not a printed value. A value given as a limit tells only on which side of the number the result lay.

As usually defined, the logD is lipophilicity at a set pH, counting ionised and neutral species. Higher therefore signals higher lipophilicity. Usually fraction unbound stands for the share of the substance not bound to proteins or other matrix. The thermodynamic solubility is solubility found after equilibrating the solid with the medium. As a reminder, the hepatocyte CLint is the capacity of the preparation to metabolise the compound, expressed as a volume cleared per time. For orientation: microsomal CLint means the capacity of the preparation to metabolise the compound, expressed as a volume cleared per time. Lower therefore signals greater metabolic stability.

For `Oc1nc(-c2ccc(C(F)(F)F)cc2)nc2c1CSCC2`, the PPB in [1] was found to be 97.6%.
Take `Cc1ccc(-c2ccc3c(ccc4sc5c(c43)NC[C@@H](C)NC5=O)n2)cn1`: the PPB in series [2] came out at 98.86%. Moreover, the logD in the series “physchem [3]” was 3.6. Further, the fraction unbound at 5 h in the series “in vitro [4]” was 0.0229; in the series “in vitro [5]” it was 0.151.
In turn, `CC1(C)[C@H](NC(=O)/C(=N\OCc2cc(=O)c(O)cn2O)c2csc(N)n2)C(=O)N1OS(=O)(=O)O` had a fraction unbound at 5 h in the series “in vitro [6]” of 0.124. In [1], the PPB is on record as 69.12%.
In series [2], `O=C(NCc1cccnc1OCC(F)(F)F)c1cncc(-c2ccc(Cl)cc2)c1` showed a PPB of 99.87%.
Turning to `Cc1ccc(S(=O)(=O)Nc2c(C(=O)N[C@@H](C)C(C)(C)C)c(C)nn2-c2ccccc2)cc1`, the PPB in [1] came out at 98.89%; in series [2], 95.82%. The same compound returned a thermodynamic solubility in “physchem [7]” of 1020 µM (≈ 465 µg/mL). Moreover, the fraction unbound at 5 h in the series “in vitro [8]” is 0.0321; in “in vitro [9]” it was 0.0818. For the same compound, the logD in the series “physchem [3]” turned out to be 1.44.
`COc1cc2nc(-c3ccc(N4CCN(C)CC4)cc3)nc(NCCN3CCOCC3)c2cc1OC`: the pKa in series [10] was found to be 5.6; in “physchem [11]”, 6.78; in the series “physchem [12]”, 7.93.
`COc1cc(-n2cnc3cc(-c4ccc(Cl)cc4)sc3c2=O)ccc1OC[C@H](O)C1CC1` returned a hepatocyte CLint in the series “in vitro [13]” of 9.77 µL/min/1e6 cells. In series [2], the PPB is listed as 98.81%. Moreover, the results for the fraction unbound at 5 h in the series “in vitro [8]”, in “in vitro [4]” and in “in vitro [5]” were 0.0014, 0.0018 and 0.0021, respectively.
Consider `Fc1cccc(COc2ccc(Nc3ncnc4ccc(-c5cccc(N6CCOCC6)c5)cc34)cc2Cl)c1`, for which, in “in vitro [14]” (microsomes), the microsomal CLint is 63.1 µL/min/mg. Moreover, in the series “physchem [3]”, the logD was found to be 3.2. The compound further registered a CLint in series [15] of 44.67 microL/min/1E6 cells.
As for `CN(C)CCNc1cc(-c2ccc(N3CCN(C)CC3)cc2)nc2ccccc12`, the pKa in series [10] is 7.31; in the series “physchem [11]” it was 7.96; in “physchem [12]”, 8.94.
Consider `CCc1nc2cc(O)ccc2c(Oc2ccc(/C=C/C(=O)O)cc2)c1-c1ccccc1`, for which the values for the pKa in the series “physchem [16]”, in “physchem [17]” and in the series “physchem [12]” were 4.34, 7.81 and 5.51, respectively. In addition, in “physchem [3]”, the logD is 3. Also, in “in vitro [5]”, the fraction unbound at 5 h was 0.0056.
Take `NCCc1ccc(O)c(O)c1F`: the values for the pKa in the series “physchem [16]”, in the series “physchem [17]” and in “physchem [12]” were 7.8, 10.3 and 8, respectively.
`O=C(NCCc1ccccc1Cl)c1cc(-n2ncc(=O)[nH]c2=O)ccc1Cl` showed a free fraction (fraction unbound) at 5 h in the series “in vitro [6]” of 0.0224. In addition, the intrinsic clearance (hepatocyte CLint) in the series “in vitro [13]” stood at 8 µL/min/1e6 cells. The same compound registered a PPB in [1] of 97.2%. Also, the pKa in “physchem [16]” amounted to 6.1. Besides, the logD in “physchem [3]” turned out to be 1.29.
With `CC1(C)S[C@@H]2[C@H](NC(=O)[C@H](N)c3ccc(O)cc3)C(=O)N2[C@H]1C(=O)O` [AMOXICILLIN], the pKa in the series “physchem [16]” turned out to be 4.03; in “physchem [17]”, 9.77; in the series “physchem [12]” it was 7.52.
For `CCCCNc1cc(C(=O)O)cc(S(N)(=O)=O)c1Oc1ccccc1` [BUMETANIDE], the results for the fraction unbound at 5 h in the series “in vitro [6]” and in the series “in vitro [5]” were 0.0366 and 0.0156, respectively. In “in vitro [13]”, this compound displayed a hepatocyte CLint of 145 µL/min/1e6 cells. In addition, the pKa in the series “physchem [16]” turned out to be 3.49; in “physchem [17]”, 9.73; in “physchem [12]”, 6.07. Also, in the series “in vitro [14]” (microsomes), the microsomal CLint was 4 µL/min/mg. This compound showed a thermodynamic solubility in the series “physchem [7]” of 1450 µM (≈ 527 µg/mL). For the same compound, the logD in the series “physchem [3]” was -0.3.
For the compound `NCc1ccccc1CC(=O)N[C@@H]1C(=O)N2C(C(=O)O)=C(CSc3nnnn3CC(=O)O)CS[C@H]12` [CEFORANIDE], the pKa was determined as 2.01 in “physchem [16]”, 3.63 in “physchem [17]” and 8.88 in “physchem [12]”.
Take `Cc1ccc(-c2cc(C(F)(F)F)nn2-c2ccc(S(N)(=O)=O)cc2)cc1` [CELECOXIB]: in “in vitro [18]”, the hepatocyte CLint was determined as 25.7 µL/min/1e6 cells. The PPB in series [1] is given as 98.94%. This compound also had a thermodynamic solubility in “physchem [7]” of 2.2 µM (≈ 0.839 µg/mL). Also, the log distribution coefficient (logD) in “physchem [3]” was 3.42.
For `COc1ccc([C@@H]2Sc3ccccc3N(CCN(C)C)C(=O)[C@@H]2OC(C)=O)cc1.Cl` [DILTIAZEM HYDROCHLORIDE], the PPB in series [1] worked out at 35.46%.
For `COc1ccc([C@@H]2Sc3ccccc3N(CCN(C)C)C(=O)[C@@H]2OC(C)=O)cc1` [DILTIAZEM], the figures for the hepatocyte CLint in “in vitro [13]” and in “in vitro [18]” were above 150 µL/min/1e6 cells and 9.33 µL/min/1e6 cells, respectively. The compound further came in with a PPB in series [1] of 75.97%. In the series “in vitro [14]” (liver microsomes), this compound gave an intrinsic clearance (microsomal CLint) of 43.6 µL/min/mg. In addition, the pKa in “physchem [12]” amounted to 8.08. For the same compound, the fraction unbound at 5 h in “in vitro [8]” was 0.349. In addition, the logD in the series “physchem [3]” amounted to 1.99.
As for `CCOc1ccc(-c2ccc(Cn3c(CC(C)(C)C(=O)O)c(SC(C)(C)C)c4cc(OCc5ccc(C)cn5)ccc43)cc2)cn1` [FIBOFLAPON], in “in vitro [13]”, the hepatocyte CLint came to 6.92 µL/min/1e6 cells. The compound also showed a PPB in series [19] of 99.92%. Moreover, in “in vitro [14]” (liver microsomes), the microsomal CLint turned out to be 9.77 µL/min/mg.
As for `COCCCC/C(=N\OCCN)c1ccc(C(F)(F)F)cc1` [FLUVOXAMINE], the PPB in series [1] amounted to 75.55%.
`Cc1ccc(C(=O)N(CCCN)[C@@H](c2nc3cc(Cl)ccc3c(=O)n2Cc2ccccc2)C(C)C)cc1` [ISPINESIB] came in with a PPB in series [1] of 99.4%.
`CCCc1c2nc(C(=O)O)cc(NC)c2cc2c(=O)cc(C(=O)O)oc12` [MINOCROMIL]: the figures for the pKa in “physchem [16]”, in “physchem [17]” and in “physchem [12]” were below 2, below 2 and 8.8, respectively.
Consider `OCCN1CCN(CCCN2c3ccccc3Sc3ccc(Cl)cc32)CC1` [PERPHENAZINE], for which the fraction unbound at 5 h in “in vitro [6]” is 0.0146. The PPB in series [1] is 98.51%.
Turning to `O=C(O)C[C@H](O)C[C@H](O)/C=C/c1c(C2CC2)nc2ccccc2c1-c1ccc(F)cc1` [PITAVASTATIN], the free fraction (fraction unbound) at 5 h was 0.0064 in “in vitro [6]”, 0.0293 in the series “in vitro [8]” and 0.02 in the series “in vitro [5]”. The compound further came in with an intrinsic clearance (microsomal CLint) in the series “in vitro [14]” (microsomes) below 3 µL/min/mg. In addition, in “physchem [3]”, the logD was determined as 0.91. The compound also displayed a CLint in series [15] of 7.11 microL/min/1E6 cells.
Consider `O=C(c1ccc(OCCN2CCCCC2)cc1)c1c(-c2ccc(O)cc2)sc2cc(O)ccc12` [RALOXIFENE], for which the hepatocyte CLint in “in vitro [13]” amounted to 30 µL/min/1e6 cells. In series [2] (SD, HW or BN), this compound registered a PPB of 99.5%. This compound also had a microsomal CLint in “in vitro [14]” (liver microsomes) of 21 µL/min/mg. Moreover, in “physchem [7]”, the solubility (thermodynamic) amounted to 9.1 µM (≈ 4.31 µg/mL). Further, the fraction unbound at 5 h in “in vitro [8]” is 0.0057; in “in vitro [5]”, 0.005. Besides, the logD in “physchem [3]” was 4.13.
In the case of `Nc1nc2ccc(OC(F)(F)F)cc2s1` [RILUZOLE], the PPB in series [1] is 97.13%.
For the compound `O=C(NC[C@H]1CN(c2ccc(N3CCOCC3=O)cc2)C(=O)O1)c1ccc(Cl)s1` [RIVAROXABAN], the PPB in series [2] worked out at 94.56%.
`O=C(Nc1c(Cl)cncc1Cl)c1ccc(OC(F)F)c(OCC2CC2)c1` [ROFLUMILAST] showed a fraction unbound at 5 h in the series “in vitro [6]” of 0.0114. Also, the hepatocyte CLint in “in vitro [13]” is above 150 µL/min/1e6 cells. Moreover, in [1], the PPB amounted to 99.5%. In the series “in vitro [14]” (microsomes), this compound had a microsomal CLint of 5 µL/min/mg. The thermodynamic solubility in the series “physchem [7]” was 1.1 µM (≈ 0.444 µg/mL). Further, the logD in “physchem [3]” was determined as 3.95.
For `CSc1ccc2c(c1)N(CCC1CCCCN1C)c1ccccc1S2` (configuration not stated) [THIORIDAZINE], the hepatocyte CLint in the series “in vitro [13]” amounted to 114 µL/min/1e6 cells. This compound came in with a PPB in series [2] of 99.3%. In “in vitro [14]” (microsomes), the microsomal CLint is 50 µL/min/mg. In “physchem [3]”, this compound returned a logD of 3.76. The unbound share (fraction unbound) at 5 h in the series “in vitro [5]” was 0.0037.
For `N#Cc1cc(-c2n[nH]c(-c3ccncc3)n2)ccn1` [TOPIROXOSTAT], the hepatocyte CLint in “in vitro [13]” was below 3 µL/min/1e6 cells. Moreover, in series [1], the PPB amounted to 84.9%. This compound also came in with a microsomal CLint in the series “in vitro [14]” (liver microsomes) of 5 µL/min/mg.

These data come from ChEMBL document CHEMBL3301361, “Experimental in vitro DMPK and physicochemical data on a set of publicly disclosed compounds”.
